Reference: patent US9546157B2, “Asymmetric piperidinyl-substituted ureas as medicines” (Helsinn Healthcare SA, priority 2014, dated 2017)

Columns and labels:
GHSR1a [1] = target: T1, GHSR1a (Homo sapiens, UniProt Q92847); assay: Calcium FLIPR assay, GHSR-1a agonism; assay type: cell-based; design: Emax: unit not given here; settings: HEK293/GHSR1a cells
T1 construct: expressed in transfected cells; host or cells: HEK293
In short: (§1)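 Calcium flux measured by FLIPR in GHSR1a-expressing HEK293 cells after 30-60 min dye preloading. Compound was added at t=20 sec, alone for agonism or with ghrelin (10 nM) for antagonism, and fluorescence recorded for 2 minutes. EC50 and IC50 were estimated from dose-response data.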

C57BL/6J mice = assay: Food intake test in mouse (GHSR1a antagonists); assay type: in vivo; settings: for inhibition in vivo at 10 mg/kg / inhibition in vivo at 30 mg/kg: Mus musculus
Method: Male C57BL/6J mice, 18-22 g body weight, were fasted overnight (16 h before compound administration) and placed in a regular light dark cycle (6:00-18:00 light/18:00-6:00 dark). After 1 wk acclimation, animals were sorted into two groups (n=6 each, 2 per cage) based on body weight. Animals in group one were be treated with vehicle and animals in group 2 were treated with the test agent (n=6 for each group). The cumulative food intake was evaluated at 1, 2, 4, 8 and 24 hrs after drug or vehicle treatment. Food intake was measured by subtracting uneaten food from the initial premeasured food.

[2] = Metabolic Stability (H = Human); assay type: in vitro ADME
[3] = Metabolic Stability (M = Mouse); assay type: in vitro ADME
GHSR1a [4] = target: T1, GHSR1a; assay: Calcium FLIPR assay, GHSR-1a antagonism (reduction of ghrelin response); assay type: cell-based; settings: HEK293/GHSR1a cells, ghrelin 10 nM
In short: as §1

[5] = PO 10 mg/kg + ANA (ANAM) 30 mg/kg mice

T1 sequence (Q92847 whole entry): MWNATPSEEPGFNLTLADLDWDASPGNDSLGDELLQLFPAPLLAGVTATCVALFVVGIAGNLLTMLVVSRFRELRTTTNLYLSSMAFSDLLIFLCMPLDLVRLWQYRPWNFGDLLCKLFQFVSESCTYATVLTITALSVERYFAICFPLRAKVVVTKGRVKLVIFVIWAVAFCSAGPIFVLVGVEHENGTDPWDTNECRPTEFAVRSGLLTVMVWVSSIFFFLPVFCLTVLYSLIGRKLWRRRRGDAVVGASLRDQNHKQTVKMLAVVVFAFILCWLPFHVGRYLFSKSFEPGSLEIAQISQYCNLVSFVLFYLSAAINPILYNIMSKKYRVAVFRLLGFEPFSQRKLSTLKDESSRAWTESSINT

CC(NC(=O)N(C)C1CCN(C)CC1)c1ccc(-c2cccs2)c(Cl)c1Cl (single isomer, unassigned) [Compound H0563, 3-(1-(2,3-dichloro-4-(thiophen-2-yl)phenyl)ethyl)-1-methyl-1-(1-methylpiperidin-4-yl)urea]
EC50 (GHSR1a [1]): 3 nM | Emax (GHSR1a [1]): 2100 | inhibition in vivo at 10 mg/kg (C57BL/6J mice; ip, 1 h, i.p. 10 mg/kg): 65% | Metabolic Stability H [2]: Medium H Medium M | Metabolic Stability M [3]: Medium H Medium M

C#Cc1ccc(C(C)NC(=O)N(C)C2CCN(C)CC2)c(Cl)c1Cl (single isomer, unassigned) [Compound H0677, 3-(1-(2,3-dichloro-4-ethynylphenyl)ethyl)-1-methyl-1-(1-methylpiperidin-4-yl)urea]
IC50 (GHSR1a [4]): 5 nM | EC50 (GHSR1a [1]): > 30000 nM | Mouse Food Intake, result in words (C57BL/6J mice; PO, dose not given): NSE | Metabolic Stability H [2]: High | Metabolic Stability M [3]: Medium

C#Cc1ccc(C(C)NC(=O)N(C)C2CCN(C)CC2)c(Cl)c1Cl (single isomer, unassigned) [Compound H0678, 3-(1-(2,3-dichloro-4-ethynylphenyl)ethyl)-1-methyl-1-(1-methylpiperidin-4-yl)urea]
IC50 (GHSR1a [4]): 55 nM | EC50 (GHSR1a [1]): > 30000 nM | inhibition in vivo at 10 mg/kg (C57BL/6J mice; ip, 1 h, i.p. 10 mg/kg): 78% | Mouse Food Intake, result in words (C57BL/6J mice; PO, dose not given): no effect | Metabolic Stability H [2]: Medium H Medium M | Metabolic Stability M [3]: Medium H Medium M

CN1CCC(N(O)C(=O)NC(CC2CC2)c2ccc(-c3cnccn3)c(Cl)c2Cl)CC1 (single isomer, unassigned) [Compound H0782, 3-(2-cyclopropyl-1-(2,3-dichloro-4-(pyrazin-2-yl)phenyl)ethyl)-1-hydroxy-1-(1-methylpiperidin-4-yl)urea]
IC50 (GHSR1a [4]): 5 nM | EC50 (GHSR1a [1]): 6 nM | Emax (GHSR1a [1]): 1923 | inhibition in vivo at 10 mg/kg (C57BL/6J mice; ip, 1 h, i.p. 10 mg/kg): 93%

CC(NC(=O)N(C)C1CCN(C)CC1)c1ccc(C#CC2CC2)c(Cl)c1Cl (single isomer, unassigned) [Compound H0818, 3-(1-(2,3-dichloro-4-(cyclopropylethynyl)phenyl)ethyl)-1-methyl-1-(1-methylpiperidin-4-yl)urea]
IC50 (GHSR1a [4]): 1.7 nM | EC50 (GHSR1a [1]): 3.5 nM | Emax (GHSR1a [1]): 1915 | inhibition in vivo at 30 mg/kg (C57BL/6J mice; po, 4 h, 30 mg/kg PO fasted mice): 22%

CC(NC(=O)N(C)C1CCN(C)CC1)c1ccc(C#CC2CC2)c(Cl)c1Cl (single isomer, unassigned) [Compound H0819, 3-(1-(2,3-dichloro-4-(cyclopropylethynyl)phenyl)ethyl)-1-methyl-1-(1-methylpiperidin-4-yl)urea]
IC50 (GHSR1a [4]): 65 nM | EC50 (GHSR1a [1]): 140 nM | Emax (GHSR1a [1]): 1419 | Mouse Food Intake, result in words (C57BL/6J mice; 30 mg/kg PO fasted mice): 30 mg/kg PO fasted mice NSE

C[C@H](NC(=O)N(C)C1CCN(C)C1)c1ccc(-c2cnccn2)c(Cl)c1Cl (single isomer, unassigned) [Compound H0862]
IC50 (GHSR1a [4]): 3 nM | EC50 (GHSR1a [1]): > 30000 nM | Mouse Food Intake, result in words (C57BL/6J mice; PO (10 mg/kg) + ANA, mice, ANA dose not given): PO (10 mg/kg) + ANA: no activity in mice | Metabolic Stability H [2]: High | Metabolic Stability M [3]: medium

CC(NC(=O)N(C)C1CCN(C)CC1)c1ccc(Cl)c(Cl)c1Cl (stereo not drawn) [Compound H0381, 1-methyl-1-(1-methylpiperidin-4-yl)-3-(1-(2,3,4-trichlorophenyl)ethyl)urea]
IC50 (GHSR1a [4]): 12 nM | EC50 (GHSR1a [1]): > 30000 nM | Mouse Food Intake, result in words (C57BL/6J mice; i.p., dose not given): IP: No effect | Metabolic Stability H [2]: Medium | Metabolic Stability M [3]: Meidum

CC(NC(=O)N(C)C1CCN(C)CC1)c1ccc(C2CC2)c(Cl)c1Cl (stereo not drawn) [Compound H0494, 3-(1-(2,3-dichloro-4-cyclopropylphenyl)ethyl)-1-methyl-1-(1-methylpiperidin-4-yl)urea]
IC50 (GHSR1a [4]): 52 nM | EC50 (GHSR1a [1]): 66 nM | Emax (GHSR1a [1]): 2996 | Mouse Food Intake, result in words (C57BL/6J mice; i.p., dose not given): No Effect | Metabolic Stability H [2]: Medium | Metabolic Stability M [3]: High

CC(NC(=O)N(C)C1CCN(C)CC1)c1ccc(-c2cccnc2)c(Cl)c1Cl (stereo not drawn) [Compound H0496, 3-(1-(2,3-dichloro-4-(pyridin-3-yl)phenyl)ethyl)-1-methyl-1-(1-methylpiperidin-4-yl)urea]
IC50 (GHSR1a [4]): 10 nM | EC50 (GHSR1a [1]): > 30000 nM | Mouse Food Intake, result in words (C57BL/6J mice; i.p. 10 mg/kg): NSE (10 mg/kg) | Metabolic Stability H [2]: Medium | Metabolic Stability M [3]: High

CC(NC(=O)N(C)C1CCN(C)CC1)c1ccc(-c2ccncc2)c(Cl)c1Cl (stereo not drawn) [Compound H0497, 3-(1-(2,3-dichloro-4-(pyridin-4-yl)phenyl)ethyl)-1-methyl-1-(1-methylpiperidin-4-yl)urea]
IC50 (GHSR1a [4]): 24 nM | EC50 (GHSR1a [1]): > 30000 nM | Mouse Food Intake, result in words (C57BL/6J mice; i.p. 30 mg/kg): NSE (30 mg/kg) | Metabolic Stability H [2]: Medium H Medium M | Metabolic Stability M [3]: Medium H Medium M

CC(NC(=O)N(C)C1CCN(C)CC1)c1ccc(-c2ccsc2)c(Cl)c1Cl (stereo not drawn) [Compound H0498, 3-(1-(2,3-dichloro-4-(thiophen-3-yl)phenyl)ethyl)-1-methyl-1-(1-methylpiperidin-4-yl)urea]
IC50 (GHSR1a [4]): 29 nM | EC50 (GHSR1a [1]): > 30000 nM | inhibition in vivo at 30 mg/kg (C57BL/6J mice; ip, 1 h, i.p. 30 mg/kg): 76% | Metabolic Stability H [2]: Medium | Metabolic Stability M [3]: High

CC(NC(=O)N(C)C1CCN(C)CC1)c1ccc(-c2cn[nH]c2)c(Cl)c1Cl (stereo not drawn) [Compound H0499, 3-(1-(2,3-dichloro-4-(1H-pyrazol-4-yl)phenyl)ethyl)-1-methyl-1-(1-methylpiperidin-4-yl)urea]
IC50 (GHSR1a [4]): 12 nM | EC50 (GHSR1a [1]): > 30000 nM | Mouse Food Intake, result in words (C57BL/6J mice; i.p. 30 mg/kg): NSE (30 mg/kg) | Metabolic Stability H [2]: Medium H Medium M | Metabolic Stability M [3]: Medium H Medium M

CC(NC(=O)N(C)C1CCN(C)CC1)c1ccc(-c2ccccc2)c(Cl)c1Cl (stereo not drawn) [Compound H0509, 3-(1-(2,3-dichloro-[1,1′-biphenyl]-4-yl)ethyl)-1-methyl-1-(1-methylpiperidin-4-yl)urea]
IC50 (GHSR1a [4]): 29 nM | EC50 (GHSR1a [1]): 2000 nM | Emax (GHSR1a [1]): 1790 | inhibition in vivo at 10 mg/kg (C57BL/6J mice; ip, 1 h, i.p. 10 mg/kg): 66% | Metabolic Stability H [2]: High H High M | Metabolic Stability M [3]: High H High M

CC(NC(=O)N(C)C1CCN(C)CC1)c1ccc(-c2cccc(N)c2)c(Cl)c1Cl (stereo not drawn) [Compound H0510, 3-(1-(3′-amino-2,3-dichloro-[1,1′-biphenyl]-4-yl)ethyl)-1-methyl-1-(1-methylpiperidin-4-yl)urea]
IC50 (GHSR1a [4]): 14 nM | EC50 (GHSR1a [1]): > 30000 nM | inhibition in vivo at 30 mg/kg (C57BL/6J mice; ip, 4 h, i.p. 30 mg/kg): 35% | Metabolic Stability H [2]: High H High M | Metabolic Stability M [3]: High H High M

COc1ccc(-c2ccc(C(C)NC(=O)N(C)C3CCN(C)CC3)c(Cl)c2Cl)cn1 (stereo not drawn) [Compound H0511, 3-(1-(2,3-dichloro-4-(6-methoxypyridin-3-yl)phenyl)ethyl)-1-methyl-1-(1-methylpiepridin-4-yl)urea]
IC50 (GHSR1a [4]): 98 nM | EC50 (GHSR1a [1]): > 30000 nM | inhibition in vivo at 30 mg/kg (C57BL/6J mice; ip, 1 h, i.p. 30 mg/kg): 94% | Metabolic Stability H [2]: Medium H Medium M | Metabolic Stability M [3]: Medium H Medium M

CC(NC(=O)N(C)C1CCN(C)CC1)c1ccc(-c2cncnc2)c(Cl)c1Cl (stereo not drawn) [Compound H0516, 3-(1-(2,3-dichloro-4-(pyrimidin-5-yl)phenyl)ethyl)-1-methyl-1-(1-methylpiperidin-4-yl)urea]
IC50 (GHSR1a [4]): 41 nM | EC50 (GHSR1a [1]): > 30000 nM | inhibition in vivo at 30 mg/kg (C57BL/6J mice; ip, 1 h, i.p. 30 mg/kg): 88% | Mouse Food Intake, result in words (C57BL/6J mice; PO, dose not given): no effect | Metabolic Stability H [2]: High H High M | Metabolic Stability M [3]: High H High M

CC(NC(=O)N(C)C1CCN(C)CC1)c1ccc(-c2cccs2)c(Cl)c1Cl (stereo not drawn) [Compound H0536, 3-(1-(2,3-dichloro-4-(thiophen-2-yl)phenyl)ethyl)-1-methyl-1-(1-methylpiperidin-4-yl)urea]
IC50 (GHSR1a [4]): 3 nM | EC50 (GHSR1a [1]): > 30000 nM | inhibition in vivo at 30 mg/kg (C57BL/6J mice; ip, 1 h, i.p. 30 mg/kg): 76% | Metabolic Stability H [2]: Medium H Medium M | Metabolic Stability M [3]: Medium H Medium M

C[C@@H](NC(=O)N(C)C1CCN(C)CC1)c1ccc(-c2cnccn2)c(Cl)c1Cl [Compound H0817, (R)-3-(1-(2,3-dicholoro-4-(pyrazin-2-yl)phenyl)ethyl)-1-methyl-1-(1-methylpiperidin-4-yl)urea]
IC50 (GHSR1a [4]): 94 nM | EC50 (GHSR1a [1]): > 30000 nM | Mouse Food Intake, result in words (C57BL/6J mice; 30 mg/kg PO fasted mice): 30 mg/kg PO fasted mice NSE

C[C@H](NC(=O)N(C)C1CCN(C)C1)c1ccc(C#CC2CC2)c(Cl)c1Cl (stereo partly drawn) [Compound H0838, 3-((S)-1-(2,3-dichloro-4-(cyclopropylethynyl)phenyl)ethyl)-1-methyl-1-(1-methylpyrrolidin-3-yl)urea]
IC50 (GHSR1a [4]): 4 nM | EC50 (GHSR1a [1]): 21 nM | Emax (GHSR1a [1]): 1340 | Mouse Food Intake increase, activity up to (C57BL/6J mice; 30 mg/kg PO mice): ≤ 8 h | Mouse Food Intake % increase (C57BL/6J mice; 2 h, 30 mg/kg PO mice): 205%

CC(NC(=O)N(C)C1CCN(C)CC1)c1ccc(-c2nccnc2F)c(Cl)c1Cl (stereo not drawn) [Compound H0840]
IC50 (GHSR1a [4]): 47 nM | EC50 (GHSR1a [1]): > 30000 nM | Mouse Food Intake, result in words (C57BL/6J mice; [5]): PO 10 mg/kg + ANA 30 mg/kg mice: NSE

CC(NC(=O)N(C)C1CCN(C)CC1)c1ccc(-c2csc(C3CC3)n2)c(Cl)c1Cl (stereo not drawn) [Compound H0841, 3-(1-(2,3-dichloro-4-(2-cyclopropylthiazol-4-yl)phenyl)ethyl)-1-methyl-1-(1-methylpiperidin-4-yl)urea]
IC50 (GHSR1a [4]): 118 nM | EC50 (GHSR1a [1]): > 30000 nM | Mouse Food Intake, result in words (C57BL/6J mice; [5]): PO 10 mg/kg + ANAM 30 mg/kg mice: NSE
